# From patent US8859625B2, “Methods to prepare penta-1,4-dien-3-ones and substituted cyclohexanones and derivatives with antitumoral and antiparasitic properties, the compounds and their uses” (Universidade Bandeirante de Sao Paulo-Academia, Paulista …, priority 2006, dated 2014)
# “Also recorded” adds a separate entry of the source.
# Key:
# [1] = test system: B16F10 melanoma; assay: Histological analysis of mice bearing B16F10 dorsal melanoma; type: in vivo, C57BL/6J mice; conditions: diluted in Miglyol 810, 1.15 μg/kg intraperitoneal
# Text: Animals are sacrificed by cervical displacement and the organ fragments were collected from the areas next to the tumoral region, stored in vials containing 10% formaldehyde, and fixed to be submitted to the routine histological processing (PARDI, P C; SIMÕES, M J, BINIVIGNAT, G. O—Ultrastructural study of the remodeling of the stroma of persistent-estrous rats—Rev. Chil. Cienc. Méd. Biol 3(2):61-65, 1993).
# Melanoma B16F10 cell line are implanted at 5×10^4 cells per animal, the ideal dose to obtain the expected results and already proclaimed for this chosen type of animal.
# All animals are treated after Day 14 of tumor implant and, as a result, the sequence of necropsis initiates at Day 15.
# To visualize the results of HB-1 administration, animals are allocated into the following groups:
# 2—HB-1 group, treated with HB-1 diluted in Miglyol 810®, kept under ad libitum feed and water.
# In both cases, the standard administered dose is of 1.15 μg/kg, via intraperitoneal as the elicited administration route.
# Animals are sacrificed by cervical displacement and necropsis is performed with the material immediately collected and transferred to vials containing 10% formaldehyde and, after a 1 to 2 day period, submitted to a routine histological technique Hystology Technique Manual (Manual De Técnicas Para Histologia—Normal E Patológica: Castro De Tolosa, Rodrigues, Behmer E Freitas Neto, Editora Manole 2003).
# After the fixation procedure to the thin plate, the hematoxylin/eosin staining method—Hystology Technique Manual (Manual (Manual De Técnicas Para Histologia—Normal E Patológica: Castro De Tolosa, Rodrigues, Behmer E Freitas Neto, Editora Manole 2003). is applied as it presents good results for tissue and cell morphologic evaluation, mainly to the components in each block.
# After staining, the thin plates are mounted, then analysed by a ZEISS microscopy with a AXIOCAM-MRC3 trade mark digital camera, and the resulting pictures processed by a AXIOVISON REL 4.2 (Carl Zeiss Inc.) software, registered by a computer.
# [2] = test system: promastigote forms of Leishmania (L) amazonensis (isolate LV79); assay: Promastigote proliferation in Warren medium, Neubauer chamber count; type: cell-based
# Experimental: (§1) Compounds are solubilized with dimethyl sulfoxide (DMSO) to produce a stock solution from which samples with different concentrations are obtained, by adding the culture medium in sufficient volume as required to attain the first desired concentration with the other concentrations being obtained by serial dilution of this first one, at ratio 2. The cultures are incubated at 22° C. or 34° C. for promastigotes and amastigotes, respectively.
# (§2) As a positive control for parasite viability evaluation, only culture medium and parasite, without any other addition, were used. As toxicity control for the solvent present in compound composition, parasite forms were incubated with DMSO diluted in culture medium.
# (§3) To quantify the promastigotes, Neubauer chambers are used and the cultures are quantified every 24 hours throughout the incubation period scheduled for each experiment. The samples are prepared from an initial dilution of 20 μL of the culture into 180 μL of the saline solution formulated (PBS+2% formaldehyde) to obtain a 1/10 dilution. Whenever necessary, serial dilutions may be performed from the first dilution. For all experiments, parasite forms should be incubated with several HB-1 concentrations, its respective controls with DMSO (we should have in mind that the initial HB-1 stock solution was prepared with DMSO and that its toxicity in relation to the parasite forms have to be assessed) and the normal culture, without any component additioned to the medium. Countings are performed as duplicates, by two different people and the final result is expressed as the arithmetic average from the two countings. The same procedure is employed to quantify the amastigote forms.
# Promastigote forms of Leishmania (L) amazonensis (isolate LV79, 8th passage for the culture medium, day 7 of culture, stationary phase) are incubated in a proportion of 10^6 promastigotes/mL in Warren medium, 3.0 mL final volume, in the presence of different concentrations of HB-1 and of the respective controls in equivalent volume of DMSO and culture medium, as positive control for proliferation and viability. The effect of HB-1 on the promastigotes of Leishmania amazonensis cultivated in Warren medium is shown in the next Table and FIG. 33.
# [3] = test system: Leishmania (L) amazonensis promastigote forms (isolate LV79); assay: Promastigote proliferation in RPMI medium, Neubauer chamber count; type: cell-based
# Experimental: as §1, §2, §3
# Leishmania (L) amazonensis promastigote forms (isolade LV79, 1st passage in culture medium, day 7 of culture, stationary phase) are incubated at a proportion of 10^6 promastigotes/mL of RPMI medium, 3.0 mL final volume, in the presence of different concentrations of HB-1 and of the respective controls in DMSO. The effect of HB-1 compound on the proliferation of Leishmania (L) amazonensis promastigotes-RPMI medium is shown in the next Table and in FIG. 34.
smiles,measurement,setting,value
"COc1cc(C=CC(=O)C=Cc2ccc(O)c(OC)c2)ccc1O [HB-1, 1,5-Bis-(4-hydroxy-3-methoxy-phenyl)-penta-1,4-dien-3-one]",leukocytic infiltrate in dorsal tumor,[1]; 14 day treatment,presence of a leukocytic infiltrate in the peri- and intratumoral portions
same,lung parenchyma alterations,[1]; compared to control group,No alterations of thickness or bronchium epithelium rupture
same,metastatic lesions,[1]; compared to control group,no metastatic lesions were found; also recorded: presence of metastatic masses or nodules was not observed
same,N^o. of promastigotes/mL (×10^6),"[2]; HB-1 3.12 μg/mL, 24 hours, Warren medium",3.0 ×10^6 promastigotes/mL
same,N^o. of promastigotes/mL (×10^6),"[2]; HB-1 3.12 μg/mL, 48 hours, Warren medium",5.95 ×10^6 promastigotes/mL
same,N^o. of promastigotes/mL (×10^6),"[2]; HB-1 3.12 μg/mL, 72 hours, Warren medium",10 ×10^6 promastigotes/mL
same,N^o. of promastigotes/mL (×10^6),"[2]; HB-1 3.12 μg/mL, 96 hours, Warren medium",11 ×10^6 promastigotes/mL
same,N^o. of promastigotes/mL (×10^6),"[2]; HB-1 3.12 μg/mL, 120 hours, Warren medium",17 ×10^6 promastigotes/mL
same,N^o. of promastigotes/mL (×10^6),"[2]; HB-1 6.25 μg/mL, 24 hours, Warren medium",2.5 ×10^6 promastigotes/mL
same,N^o. of promastigotes/mL (×10^6),"[2]; HB-1 6.25 μg/mL, 48 hours, Warren medium",3.95 ×10^6 promastigotes/mL
same,N^o. of promastigotes/mL (×10^6),"[2]; HB-1 6.25 μg/mL, 72 hours, Warren medium",7.15 ×10^6 promastigotes/mL
same,N^o. of promastigotes/mL (×10^6),"[2]; HB-1 6.25 μg/mL, 96 hours, Warren medium",13.0 ×10^6 promastigotes/mL
same,N^o. of promastigotes/mL (×10^6),"[2]; HB-1 6.25 μg/mL, 120 hours, Warren medium",18.6 ×10^6 promastigotes/mL
same,effect on promastigotes in words,"[2]; HB-1 12.5 μg/mL to 3.12 μg/mL, Warren medium",sub-lethal
same,N^o. of promastigotes/mL (×10^6),"[2]; HB-1 12.5 μg/mL, 24 hours, Warren medium",2.55 ×10^6 promastigotes/mL
same,N^o. of promastigotes/mL (×10^6),"[2]; HB-1 12.5 μg/mL, 48 hours, Warren medium",2.25 ×10^6 promastigotes/mL
same,N^o. of promastigotes/mL (×10^6),"[2]; HB-1 12.5 μg/mL, 72 hours, Warren medium",3.9 ×10^6 promastigotes/mL
same,N^o. of promastigotes/mL (×10^6),"[2]; HB-1 12.5 μg/mL, 96 hours, Warren medium",5.9 ×10^6 promastigotes/mL
same,N^o. of promastigotes/mL (×10^6),"[2]; HB-1 12.5 μg/mL, 120 hours, Warren medium",18.3 ×10^6 promastigotes/mL
same,N^o. of promastigotes/mL (×10^6),"[2]; HB-1 25 μg/mL, 24 hours, Warren medium",3.25 ×10^6 promastigotes/mL
same,N^o. of promastigotes/mL (×10^6),"[2]; HB-1 25 μg/mL, 48 hours, Warren medium",1.8 ×10^6 promastigotes/mL
same,N^o. of promastigotes/mL (×10^6),"[2]; HB-1 25 μg/mL, 72 hours, Warren medium",0.4 ×10^6 promastigotes/mL
same,N^o. of promastigotes/mL (×10^6),"[2]; HB-1 25 μg/mL, 96 hours, Warren medium",0.1 ×10^6 promastigotes/mL
same,N^o. of promastigotes/mL (×10^6),"[2]; HB-1 25 μg/mL, 120 hours, Warren medium",0 ×10^6 promastigotes/mL
same,time of culture to 100% mortality,"[2]; HB-1 25 μg/mL, Warren medium",120 h
same,N^o. of promastigotes/mL (×10^6),"[2]; HB-1 50 μg/mL, 24 hours, Warren medium",2.1 ×10^6 promastigotes/mL
same,N^o. of promastigotes/mL (×10^6),"[2]; HB-1 50 μg/mL, 48 hours, Warren medium",0.4 ×10^6 promastigotes/mL
same,N^o. of promastigotes/mL (×10^6),"[2]; HB-1 50 μg/mL, 72 hours, Warren medium",0.1 ×10^6 promastigotes/mL
same,N^o. of promastigotes/mL (×10^6),"[2]; HB-1 50 μg/mL, 96 hours, Warren medium",0 ×10^6 promastigotes/mL
same,N^o. of promastigotes/mL (×10^6),"[2]; HB-1 50 μg/mL, 120 hours, Warren medium",0 ×10^6 promastigotes/mL
same,time of culture to 100% mortality,"[2]; HB-1 50 μg/mL, Warren medium",96 h
same,N^o. of promastigotes/mL (×10^6),"[2]; HB-1 100 μg/mL, 24 hours, Warren medium",1.15 ×10^6 promastigotes/mL
same,N^o. of promastigotes/mL (×10^6),"[2]; HB-1 100 μg/mL, 48 hours, Warren medium",0.2 ×10^6 promastigotes/mL
same,N^o. of promastigotes/mL (×10^6),"[2]; HB-1 100 μg/mL, 72 hours, Warren medium",0 ×10^6 promastigotes/mL
same,N^o. of promastigotes/mL (×10^6),"[2]; HB-1 100 μg/mL, 96 hours, Warren medium",0 ×10^6 promastigotes/mL
same,N^o. of promastigotes/mL (×10^6),"[2]; HB-1 100 μg/mL, 120 hours, Warren medium",0 ×10^6 promastigotes/mL
same,time of culture to 100% mortality,"[2]; HB-1 100 μg/mL, Warren medium",72 h
same,inhibition at 25 µg/mL,"[2]; Leishmania, 72 h, read-out: inhibition of parasite proliferation",81%
same,inhibition at 50 µg/mL,"[2]; Leishmania, HB-1 50 μg/mL, after 72 hours, Warren medium, read-out: inhibition of parasite proliferation",95.8%
same,inhibition at 100 µg/mL,"[2]; Leishmania, HB-1 100 μg/mL, after 72 hours, Warren medium, read-out: inhibition of parasite proliferation",100%
same,N^o. of promastigotes/mL (×10^6),"[3]; HB-1 3.12 μg/mL, 24 hours",1.6 ×10^6 promastigotes/mL
same,N^o. of promastigotes/mL (×10^6),"[3]; HB-1 3.12 μg/mL, 48 hours",2.1 ×10^6 promastigotes/mL
same,N^o. of promastigotes/mL (×10^6),"[3]; HB-1 3.12 μg/mL, 72 hours",2.1 ×10^6 promastigotes/mL
same,N^o. of promastigotes/mL (×10^6),"[3]; HB-1 3.12 μg/mL, 144 hours",2.4 ×10^6 promastigotes/mL
same,N^o. of promastigotes/mL (×10^6),"[3]; HB-1 6.25 μg/mL, 24 hours",0.8 ×10^6 promastigotes/mL
same,N^o. of promastigotes/mL (×10^6),"[3]; HB-1 6.25 μg/mL, 48 hours",1.0 ×10^6 promastigotes/mL
same,N^o. of promastigotes/mL (×10^6),"[3]; HB-1 6.25 μg/mL, 72 hours",0.7 ×10^6 promastigotes/mL
same,N^o. of promastigotes/mL (×10^6),"[3]; HB-1 6.25 μg/mL, 144 hours",0.3 ×10^6 promastigotes/mL
same,N^o. of promastigotes/mL (×10^6),"[3]; HB-1 12.5 μg/mL, 24 hours",0.7 ×10^6 promastigotes/mL
same,N^o. of promastigotes/mL (×10^6),"[3]; HB-1 12.5 μg/mL, 48 hours",0 ×10^6 promastigotes/mL
same,N^o. of promastigotes/mL (×10^6),"[3]; HB-1 12.5 μg/mL, 72 hours",0 ×10^6 promastigotes/mL
same,N^o. of promastigotes/mL (×10^6),"[3]; HB-1 12.5 μg/mL, 144 hours",0 ×10^6 promastigotes/mL
same,N^o. of promastigotes/mL (×10^6),"[3]; HB-1 25 μg/mL, 24 hours",0.5 ×10^6 promastigotes/mL
same,N^o. of promastigotes/mL (×10^6),"[3]; HB-1 25 μg/mL, 48 hours",0 ×10^6 promastigotes/mL
same,N^o. of promastigotes/mL (×10^6),"[3]; HB-1 25 μg/mL, 72 hours",0 ×10^6 promastigotes/mL
same,N^o. of promastigotes/mL (×10^6),"[3]; HB-1 25 μg/mL, 144 hours",0 ×10^6 promastigotes/mL
same,N^o. of promastigotes/mL (×10^6),"[3]; HB-1 50 μg/mL, 24 hours",0.1 ×10^6 promastigotes/mL
same,N^o. of promastigotes/mL (×10^6),"[3]; HB-1 50 μg/mL, 48 hours",0 ×10^6 promastigotes/mL
same,N^o. of promastigotes/mL (×10^6),"[3]; HB-1 50 μg/mL, 72 hours",0 ×10^6 promastigotes/mL
same,N^o. of promastigotes/mL (×10^6),"[3]; HB-1 50 μg/mL, 144 hours",0 ×10^6 promastigotes/mL
same,inhibitory effect (=mortality),"[3]; HB-1 100 μg/mL to 12.5 μg/mL, 48 hours",100%
same,N^o. of promastigotes/mL (×10^6),"[3]; HB-1 100 μg/mL, 24 hours",0 ×10^6 promastigotes/mL
same,N^o. of promastigotes/mL (×10^6),"[3]; HB-1 100 μg/mL, 48 hours",0 ×10^6 promastigotes/mL
same,N^o. of promastigotes/mL (×10^6),"[3]; HB-1 100 μg/mL, 72 hours",0 ×10^6 promastigotes/mL
same,N^o. of promastigotes/mL (×10^6),"[3]; HB-1 100 μg/mL, 144 hours",0 ×10^6 promastigotes/mL
